Measurements from paper PMC12649549, “Sequence Permutation Generated Lysine and Tryptophan-Rich Antimicrobial Peptides with Enhanced Therapeutic Index” (Antibiotics, 2025).
Like-named read-outs stand apart in the source and are kept apart here.

Experiments:
[1] = tested on: A. baumannii 14B00100 (Acinetobacter sp., BCRC number 14B0100)
Method in brief: (§1)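 Salt and pH tolerance was assessed by determining MICs in LYM medium containing 50–300 mM NaCl, 0.5–2.5 mM MgCl2, or at pH 4.5–6.5, alongside MH broth. The inoculum was 5 × 10^5 CFU/mL.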

S. aureus ATCC 33591 = tested on: S. aureus ATCC 33591
Method in brief: as §1

S. aureus ATCC 33593 = tested on: S. aureus ATCC 33593
Method in brief: as §1

S. aureus ATCC 33592 = tested on: S. aureus ATCC 33592
Experimental: The antibacterial and salt-resistant activity of the peptides was tested using Escherichia coli (ATCC 25922), Pseudomonas aeruginosa Migula (ATCC 27853), Acinetobacter sp. (BCRC number 14B0091, BCRC number 14B0097, and BCRC number 14B0100), and Staphylococcus aureus sp. strains (ATCC 25923, ATCC 33591, ATCC 33592, ATCC 33593, and ATCC 6538). All bacteria were obtained from the Food Industry Research and Development Institute (Hsinchu, Taiwan) and cultured in sterilized Müller-Hinton (MH) broth at 37 °C and 200 rpm for 8 h. The inoculum concentrations were determined by measuring the optical density at 600 nm (OD 600 = 1, approximately 10^8 CFU/mL) using an Ultrospec 2100 pro UV-Visible spectrophotometer (Biochrom Ltd., Cambridge, UK) after 8 h of culture.
The antibacterial activities of the peptides in Müller-Hinton (MH) broth and modified LYM broth were determined using the standard broth microdilution method as per Clinical and Laboratory Standards Institute (CLSI) guidelines. The LYM broth was prepared with specific components and adjusted to different conditions, including varying concentrations of NaCl and MgCl2, and different pH levels. To prepare the LYM broth, 5.4 mM KCl, 5.6 mM Na2HPO4, 0.5 mM MgSO4, and 1.0 mM sodium citrate were added. Additionally, 0.4 mg of ZnCl2, 2.0 mg of FeCl3·6H2O, 0.1 mg of CuSO4·5H2O, 0.1 mg of MnSO4·H2O, 0.1 mg of Na2B4O7∙10H2O, 700 mg of amino acid mixtures without tryptophan (Takara Bio Inc., San Jose, CA, USA), and 20 mg of L-tryptophan were added per liter of medium. The pH was adjusted to 7.4, and a vitamin mixture (100X, Sigma) and glucose concentration of 2% were added. […] Bacterial strains were incubated in MH broth overnight, regrown, and diluted to a final concentration of 5 × 10^5 CFU/mL. Peptides were added to each well at final concentrations of 50, 25, 12.5, 6.25, 3.13, 1.56, and 0.78 µg/mL, and 99 µL of diluted microbes was loaded into each well of a polypropylene 96-well plate. […] The Morpheus HeatMap software (https://software.broadinstitute.org/morpheus/) was used to display MIC values on a color scale. All experiments were independently repeated three times.

Gram-positive bacteria = experiment: Geometric mean MIC and therapeutic index, Gram-positive bacteria; format: cell-based; conditions: Gram-positive bacteria
Experimental: In this study, we aimed to investigate the potential of W5K series peptides for therapeutic use. To evaluate their efficacy for antibacterial therapy, we used the Therapeutic Index (TI) as a measure of their cell selectivity. The TI was calculated as the ratio of the concentration causing 10% hemolysis of human red blood cells (HC10) to the geometric mean minimum inhibitory concentration (GM) of the peptides against both Gram-negative and Gram-positive bacteria. This parameter was used to quantitatively assess the balance between antibacterial potency and cytotoxicity among the W5K derivatives.
The antibacterial activities of the peptides in Müller-Hinton (MH) broth and modified LYM broth were determined using the standard broth microdilution method as per Clinical and Laboratory Standards Institute (CLSI) guidelines. The LYM broth was prepared with specific components and adjusted to different conditions, including varying concentrations of NaCl and MgCl2, and different pH levels. To prepare the LYM broth, 5.4 mM KCl, 5.6 mM Na2HPO4, 0.5 mM MgSO4, and 1.0 mM sodium citrate were added. Additionally, 0.4 mg of ZnCl2, 2.0 mg of FeCl3·6H2O, 0.1 mg of CuSO4·5H2O, 0.1 mg of MnSO4·H2O, 0.1 mg of Na2B4O7∙10H2O, 700 mg of amino acid mixtures without tryptophan (Takara Bio Inc., San Jose, CA, USA), and 20 mg of L-tryptophan were added per liter of medium. The pH was adjusted to 7.4, and a vitamin mixture (100X, Sigma) and glucose concentration of 2% were added. For different conditions of LYM broth, NaCl concentrations of 300, 200, 150, and 50 mM, MgCl2 concentrations of 2.5, 1.5, and 0.5 mM, and pH levels of 6.5, 5.5, and 4.5 were adjusted. Bacterial strains were incubated in MH broth overnight, regrown, and diluted to a final concentration of 5 × 10^5 CFU/mL. Peptides were added to each well at final concentrations of 50, 25, 12.5, 6.25, 3.13, 1.56, and 0.78 µg/mL, and 99 µL of diluted microbes was loaded into each well of a polypropylene 96-well plate. […] The Morpheus HeatMap software (https://software.broadinstitute.org/morpheus/) was used to display MIC values on a color scale. All experiments were independently repeated three times.

[2] = LYM broth, 0 mM NaCl, 16 h, 37 °C
[3] = LYM broth, 50 mM NaCl, 16 h, 37 °C
[4] = LYM broth, 100 mM NaCl, 16 h, 37 °C
[5] = LYM broth, 200 mM (NaCl), 16 h, 37 °C
[6] = LYM broth, 300 mM (NaCl), 16 h, 37 °C
[7] = MH broth, 5 × 10^5 CFU/mL, 16 h, 37 °C, repeated three times

Substance Ac-LAKKKKWRKWLKW-NH2 [Peptide W5K09] has an MIC [1, 2] of 3.13 µg/mL, an MIC ([1]; LYM broth, 0.5 mM MgCl2) of 3.13 µg/mL and an MIC ([1]; LYM broth, 1.5 mM MgCl2) of 3.13 µg/mL. It also gave an MIC ([1]; LYM broth, 2.5 mM MgCl2) of 3.13 µg/mL, an MIC [1, 3] of 3.13 µg/mL and an MIC [1, 4] of 6.25 µg/mL. For the same substance, the MIC [1, 5] was 25 µg/mL, the MIC [1, 6] was >50 µg/mL and the MIC ([1]; LYM broth, pH 4.5) was 3.13 µg/mL. For the same substance, the MIC ([1]; LYM broth, pH 5.5) was 1.56 µg/mL, the MIC ([1]; LYM broth, pH 6.5) was 1.56 µg/mL and the MIC [1, 7] was 50 µg/mL. For the same substance, the MIC (S. aureus ATCC 33591; [2]) was 25 µg/mL, the MIC (S. aureus ATCC 33591; LYM broth, 0.5 mM MgCl2) was 25 µg/mL and the MIC (S. aureus ATCC 33591; LYM broth, 1.5 mM MgCl2) was 50 µg/mL. It also gave an MIC (S. aureus ATCC 33591; LYM broth, 2.5 mM MgCl2) of 50 µg/mL, an MIC (S. aureus ATCC 33591; [3]) of 25 µg/mL and an MIC (S. aureus ATCC 33591; [4]) of 50 µg/mL. The MIC (S. aureus ATCC 33591; [5]) was >50 µg/mL, the MIC (S. aureus ATCC 33591; [6]) was >50 µg/mL and the MIC (S. aureus ATCC 33591; LYM broth, pH 4.5) was 25 µg/mL. For the same substance, the MIC (S. aureus ATCC 33591; LYM broth, pH 5.5) was 12.5 µg/mL, the MIC (S. aureus ATCC 33591; LYM broth, pH 6.5) was 12.5 µg/mL and the MIC (S. aureus ATCC 33591; [7]) was >50 µg/mL. It also gave an MIC (S. aureus ATCC 33593; [2]) of 25 µg/mL, an MIC (S. aureus ATCC 33593; LYM broth, 0.5 mM MgCl2) of 25 µg/mL and an MIC (S. aureus ATCC 33593; LYM broth, 1.5 mM MgCl2) of 25 µg/mL. The MIC (S. aureus ATCC 33593; LYM broth, 2.5 mM MgCl2) was 50 µg/mL, the MIC (S. aureus ATCC 33593; [3]) was 25 µg/mL and the MIC (S. aureus ATCC 33593; [4]) was 50 µg/mL. For the same substance, the MIC (S. aureus ATCC 33593; [5]) was >50 µg/mL, the MIC (S. aureus ATCC 33593; [6]) was >50 µg/mL and the MIC (S. aureus ATCC 33593; LYM broth, pH 4.5) was 25 µg/mL. The MIC (S. aureus ATCC 33593; LYM broth, pH 5.5) was 25 µg/mL, the MIC (S. aureus ATCC 33593; LYM broth, pH 6.5) was 12.5 µg/mL and the MIC (S. aureus ATCC 33593; [7]) was >50 µg/mL. The MIC (S. aureus ATCC 33592; [2]) was 25 µg/mL, the MIC (S. aureus ATCC 33592; LYM broth, 0.5 mM MgCl2) was 25 µg/mL and the MIC (S. aureus ATCC 33592; LYM broth, 1.5 mM MgCl2) was 25 µg/mL. For the same substance, the MIC (S. aureus ATCC 33592; LYM broth, 2.5 mM MgCl2) was 50 µg/mL, the MIC (S. aureus ATCC 33592; [3]) was 25 µg/mL and the MIC (S. aureus ATCC 33592; [4]) was 50 µg/mL. The MIC (S. aureus ATCC 33592; [5]) was 50 µg/mL, the MIC (S. aureus ATCC 33592; [6]) was >50 µg/mL and the MIC (S. aureus ATCC 33592; LYM broth, pH 4.5) was 25 µg/mL. The MIC (S. aureus ATCC 33592; LYM broth, pH 5.5) was 12.5 µg/mL, the MIC (S. aureus ATCC 33592; LYM broth, pH 6.5) was 12.5 µg/mL and the MIC (S. aureus ATCC 33592; [7]) was >50 µg/mL. The “GM G+ (geometric mean of the MIC values)” value (Gram-positive bacteria; MH broth, MIC >50 µg/mL counted as 100 µg/mL) was 75.8 µg/mL and the “Therapeutic Index (TI) G+” value (Gram-positive bacteria; HC10/GM) was 1.4.
